# Experimental data as given in ChEMBL document CHEMBL2380236, “Core refinement toward permeable β-secretase (BACE-1) inhibitors with low hERG activity” (J Med Chem, 2013).
# Key:
# physchem [1] = assay: physchem
# physchem [2] = assay: physchem; remark: listed apart in the source
# in vitro = conditions: human, Caco-2, pH 7.4, Papp
# in vivo [3] = conditions: C57BL/6, mouse, brain, iv
# in vivo [4] = conditions: C57BL/6, mouse, brain and plasma, iv
# in vivo [5] = conditions: C57BL/6, mouse, plasma, iv
# in vivo [6] = conditions: C57BL/6, mouse, brain and plasma, iv; remark: listed apart in the source
# in vivo [7] = conditions: C57BL/6, mouse, brain and plasma, po
# in vivo [8] = conditions: C57BL/6, mouse, brain and plasma, po; remark: listed apart in the source
# in vivo [9] = conditions: C57BL/6, mouse, plasma, po
# in vivo [10] = conditions: C57BL/6, mouse, brain, po
Structure (SMILES),pKa (physchem [1]),chromatographic logD (physchem [2]),Papp A→B at 10 µM (in vitro),other results
CC1(c2cccc(-c3cccnc3)c2)N=C(N)c2ccccc2O1 (stereo not given),8.2,1.8,17 ×10⁻⁶ cm/s,–
CCC1(c2cccc(-c3cncnc3)c2)N=C(N)c2ccccc2O1 (stereo not given),8.4,1.8,–,–
CC1(c2cccc(-c3cncnc3)c2)N=C(N)c2c(F)cccc2O1 (stereo not given),6.9,1.6,39 ×10⁻⁶ cm/s,–
CC1(c2cccc(-c3cccnc3)c2)N=C(N)c2c(F)cccc2O1 (stereo not given),7,2.3,23 ×10⁻⁶ cm/s,–
CC1(c2cccc(-c3cncnc3)c2)N=C(N)c2ccccc2S1 (stereo not given),8.3,1.7,39 ×10⁻⁶ cm/s,–
COc1cccc(-c2cccc(C3(C)N=C(N)CCO3)c2)c1 (stereo not given),9.3,2.5,13 ×10⁻⁶ cm/s,–
CC1(c2cccc(-c3cccc(Cl)c3)c2)N=C(N)CCO1 (stereo not given),9.3,3.3,2.1 ×10⁻⁶ cm/s,–
CC1(c2cccc(-c3cncnc3)c2)N=C(N)CCS1 (stereo not given),9.1,< 0,21 ×10⁻⁶ cm/s,fraction unbound at […] (in vivo [3]): 0.074; Kp at […] (in vivo [4]): 1.4; fraction unbound at […] (in vivo [5]): 0.89; Kp uu at […] (in vivo [6]): 0.27
COc1cccc(-c2cccc(C3(C)N=C(N)CCS3)c2)c1 (stereo not given),9.3,2.5,5.2 ×10⁻⁶ cm/s,–
COc1cccc(-c2cccc(C3(C)COCC(N)=N3)c2)c1 (stereo not given),9.8,2.1,20 ×10⁻⁶ cm/s,–
COc1cccc(-c2cccc(C3(C)CSCC(N)=N3)c2)c1 (stereo not given),10.5,–,–,–
COc1cccc(-c2cccc(C3(C)CCSC(N)=N3)c2)c1 (stereo not given),7,2.5,72 ×10⁻⁶ cm/s,Kp at […] (in vivo [7]): 8.9; Kp uu at […] (in vivo [8]): 0.64; fraction unbound at […] (in vivo [9]): 0.07; fraction unbound at […] (in vivo [10]): 0.005
COc1ccc(C2(c3cccc(-c4cncnc4)c3)N=C(N)c3nc(C)sc32)cc1 (stereo not given),8,2,18 ×10⁻⁶ cm/s,Kp at […] (in vivo [7]): 0.2; Kp uu at […] (in vivo [8]): 0.04; fraction unbound at […] (in vivo [9]): 0.1; fraction unbound at […] (in vivo [10]): 0.02
COc1ccc(C2(c3cccc(-c4cncnc4)c3)N=C(N)n3nc(C)cc32)cc1 (stereo not given),5.4,2.3,30 ×10⁻⁶ cm/s,–
COc1cccc(-c2cccc(C3(C)N=C(N)CS3)c2)c1 (stereo not given),6.9,3.6,15 ×10⁻⁶ cm/s,–
COc1ccc(C2(c3cccc(-c4cccnc4)c3)N=C(N)CS2)cc1 (stereo not given),6.2,2.9,19 ×10⁻⁶ cm/s,fraction unbound at […] (in vivo [3]): 0.01; Kp at […] (in vivo [4]): 0.9; fraction unbound at […] (in vivo [5]): 0.007; Kp uu at […] (in vivo [6]): 1.3
COc1cccc(-c2cccc(C3(c4ccncc4)N=C(N)CS3)c2)c1 (stereo not given),5.4,–,–,–
COc1cccc(-c2cccc(C3(C)N=C(N)CN3C(C)=O)c2)c1 (stereo not given),6.5,1.4,16 ×10⁻⁶ cm/s,–
COc1ccc(C2(c3cccc(-c4cncnc4)c3)CCC(N)=N2)cc1 (stereo not given),10,0.9,< 0.3 ×10⁻⁶ cm/s,–
CC1(c2cccc(-c3cncnc3)c2)N=C(N)c2ccccc2O1 (stereo not given),8.1,1.2,31 ×10⁻⁶ cm/s,–
C[C@]1(c2cccc(-c3cncc(F)c3)c2)N=C(N)[C@@H]2CCCCN21 (relative stereo),–,1.5,–,–
C[C@]1(c2cccc(-c3cncc(F)c3)c2)N=C(N)[C@H]2CCCCN21 (relative stereo),9.2,2,–,–
COc1ccc(C2(c3cccc(-c4cccnc4)c3)CC(OC)C(N)=N2)cc1 (stereo in doubt; form 4),–,1.8,–,–
